ChEMBL document CHEMBL3991948, “Rab7 GTPase inhibitors and related methods of treatment” (2014)
One block for each compound: values may come before it. Activity calls are given as the source filed them. The rule behind the calls is not given here.

Experiments:
[1] = target: T1, Integrin alpha-4/beta-1 (Homo sapiens) (UniProt P05556+P13612); assay: Inhibition of FITC-LDV peptide binding to VLA4 in human U937 deltaST cells at 30 uM by FACScan flow cytometry; type: cell-based
[2] = Cytotoxicity against human U937 cells assessed as cell viability at 100 uM after 24 hrs by cell counting method (reference value: 94%); type: cell-based, U-937; details: read-out: Activity
[3] = Chemical stability of the compound after 72 hrs in presence of 1 to 2.4 mg L-glutathione by LCMS analysis; type: physicochemical
[4] = target: T1, Integrin alpha-4/beta-1 (Homo sapiens); assay: Inhibition of FITC-LDV peptide binding to VLA4 in human U937 deltaST cells at 10 to 100 uM by FACScan flow cytometry; type: cell-based
[5] = target: Ras-related protein Rab-7a (Homo sapiens) (UniProt P51149); assay: Displacement of BODIPY-GTP from nucleotide binding site of wild-type GST-tagged Rab7 GTPase (unknown origin) expressed in Escherichia coli BL21(DE3) in EDTA buffer assessed as residual activity after 2 hrs by flow cytometry
Ras-related protein Rab-7a (Homo sapiens), sequence (P51149 whole entry): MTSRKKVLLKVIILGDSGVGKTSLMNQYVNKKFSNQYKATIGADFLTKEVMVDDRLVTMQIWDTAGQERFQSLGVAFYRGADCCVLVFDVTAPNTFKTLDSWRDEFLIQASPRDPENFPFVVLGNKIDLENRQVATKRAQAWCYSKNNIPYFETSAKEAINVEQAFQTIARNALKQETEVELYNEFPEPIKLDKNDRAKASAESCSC

[6] = target: Ras-related protein Rab-7a (Homo sapiens) (UniProt P51149); assay: Displacement of BODIPY-GTP from nucleotide binding site of wild-type GST-tagged Rab7 GTPase (unknown origin) expressed in Escherichia coli BL21(DE3) in Mg buffer assessed as residual activity after 2 hrs by flow cytometry
[7] = target: Ras-related protein Rab-7a (Homo sapiens) (UniProt P51149); assay: Displacement of BODIPY-GTP from nucleotide binding site of wild-type GST-tagged Rab7 GTPase (unknown origin) expressed in Escherichia coli BL21(DE3) after 2 hrs by flow cytometry relative to untreated control
[8] = target: T1, Integrin alpha-4/beta-1 (Homo sapiens); assay: Inhibition of FITC-LDV peptide binding to VLA4 in human U937 deltaST cells at 10 to 50 uM by FACScan flow cytometry; type: cell-based

- inhibition [1]: Active
SMILES: CC1(C)Cc2c(sc(NC(=O)NC(=O)c3ccccc3)c2C(=O)O)CO1
- viability at 24 h, 100 µM [2]: 98%

- Stability [3]: Stable
- inhibition [4]: Active
SMILES: CC1(C)Cc2c(sc(NC(=S)NC(=O)c3ccccc3)c2C(=O)O)CO1

- Activity [5]: 91%
- Activity [6]: 56%
SMILES: CC1Cc2c(sc(NC(=S)NC(=O)c3ccccc3)c2C(=O)O)CO1 (centres undefined)
- viability at 24 h, 100 µM [2]: 94%

- Activity [5]: 100%
SMILES: CC1(C)Cc2c(sc(NC(=S)NC(=O)c3ccc(F)cc3)c2C(=O)O)CO1

- inhibition [7]: Active
SMILES: Nc1nc2c(ncn2[C@@H]2O[C@H](COP(=O)(O)OP(=O)(O)OP(=O)(O)O)[C@@H](O)[C@H]2O)c(=O)[nH]1

- Activity [5]: 91%
- inhibition [8]: Active
- Activity [6]: 45%
SMILES: O=C(NC(=S)Nc1sc2c(c1C(=O)O)CCOC2)c1ccccc1
- viability at 24 h, 100 µM [2]: 92%

- inhibition [7]: Active
SMILES: Nc1nc2c(ncn2[C@@H]2O[C@H](COP(=O)(O)OP(=O)(O)O)[C@@H](O)[C@H]2O)c(=O)[nH]1
